Experimental data reported in US9617222B1, “Alkynyl indazole derivative and use thereof” (SENJU PHARMACEUTICAL CO., LTD., priority 2014, dated 2017).
In brackets after ≈: the same amount, converted by molar mass.

Legend:
[1] = Solubility test in 0.1% phosphate buffer solution (pH 7.0); type: physicochemical; settings: aqueous buffer, thermodynamic from solid; 0.1% phosphate buffer solution (pH 7.0), room temperature overnight
Experimental: The mixture was subjected to ultrasonic irradiation for 30 seconds, and then shaken at room temperature overnight. The resulting suspension was left at rest at room temperature for 30 minutes, then filtered through a chromatography disc (0.20 μm) to prepare a sample solution. The sample solution and the standard solution were analyzed by LC-MS (product name: ACQUITY UPLC H-CLASS SYSTEM and Xevo TQ-S, produced by Nihon Waters K.K.), and a solubility was calculated from the obtained peak area value by an external standard method.

[2] = tested on: Human Retinal Microvascular Endothelial (hRMVE) Cells (hRMVEC); experiment: Growth inhibition of hRMVE cells under VEGF stimulation (MTT assay); type: cell-based; settings: recombinant human VEGF, 48 hours, read-out: Cell Growth Inhibition Activity

Compound | solubility [1] [µg/mL] | IC50 [2] [nM]
CNC(=O)c1ccccc1Sc1ccc2c(C#Cc3ccc(NC(=O)OCCOCCOCCOCCOCCOC)cc3)n[nH]c2c1 [Compound 18, 2,5,8,11,14-pentaoxahexadecane-16-yl {4-[(6-{[2-(methylcarbamoyl)phenyl]thio}-1H-indazol-3-yl)ethynyl]phenyl}carbamate] | 0.86 (≈ 1.27 µM) | 
CNC(=O)c1ccccc1Sc1ccc2c(C#Cc3ccc(NC(=O)COCCOCCOCCOC)cn3)n[nH]c2c1 [Compound 41] | 0.52 (≈ 0.861 µM) | 
CNC(=O)c1ccccc1Sc1ccc2c(C#Cc3ccc(NC(=O)NCCOCCOCCOCCOCCOC)cc3)n[nH]c2c1 [Compound 10, 2-{[3-({4-[3-(2,5,8,11,14-pentaoxahexadecane-16-yl)ureido]phenyl}ethynyl)-1H-indazol-6-yl]thio}-N-methylbenzamide] | 2.5 (≈ 3.7 µM) | 
CNC(=O)c1ccccc1Sc1ccc2c(C#Cc3ccc(NC(=O)COCCOCCOCCOC)nc3)n[nH]c2c1 [Compound 38, N-{5-[(6-{[2-(methylcarbamoyl)phenyl]thio}-1H-indazol-3-yl)ethynyl]pyridine-2-yl}-2,5,8,11-tetraoxatridecane-13-amide] |  | 3.5
CNC(=O)c1ccccc1Sc1ccc2c(C#Cc3ccc(NC(=O)NCCOCCOCCNC(C)=O)cc3)n[nH]c2c1 [Compound 45, 2-[(3-{[4-(3-{2-[2-(2-acetamideethoxy)ethoxy]ethyl}ureido)phenyl]ethynyl}-1H-indazol-6-yl)thio]-N-methylbenzamide] | 0.56 (≈ 0.911 µM) | 2.5
CNC(=O)c1ccccc1Sc1ccc2c(C#Cc3cccc(NC(=O)NCCOCCOCCOCCOCCOC)c3)n[nH]c2c1 [Compound 5, 2-{[3-({3-[3-(2,5,8,11,14-pentaoxahexadecane-16-yl)ureido]phenyl}ethynyl)-1H-indazol-6-yl]thio}-N-methylbenzamide] | 0.99 (≈ 1.46 µM) | 
CNC(=O)c1ccccc1Sc1ccc2c(C#Cc3ccc(NC(=O)NCCOCCOCCOCCOCCOC)nc3)n[nH]c2c1 [Compound 34, 2-{[3-({6-[3-(2,5,8,11,14-pentaoxahexadecane-16-yl)ureido]pyridine-3-yl}ethynyl)-1H-indazol-6-yl]thio}-N-methylbenzamide] | 2.6 (≈ 3.84 µM) | 
CNC(=O)c1ccccc1Sc1ccc2c(C#Cc3ccc(NC(=O)NCCOCCOCCOCCOC)cn3)n[nH]c2c1 [Compound 36, 2-{[3-({5-[3-(2,5,8,11-tetraoxatridecane-13-yl)ureido]pyridine-2-yl}ethynyl)-1H-indazol-6-yl]thio}-N-methylbenzamide] | 16 (≈ 25.3 µM) | 
CNC(=O)c1ccccc1Sc1ccc2c(C#Cc3ccc(NC(=O)COCCOCCOCCOCCOCCOC)cc3)n[nH]c2c1 [Compound 22, N-{4-[(6-{[2-(methylcarbamoyl)phenyl]thio}-1H-indazol-3-yl)ethynyl]phenyl}-2,5,8,11,14,17-hexaoxanonadecane-19-amide] | 3.3 (≈ 4.78 µM) | 
CNC(=O)c1ccccc1Sc1ccc2c(C#Cc3cccc(NC(=O)OCCOCCOCCOC)c3)n[nH]c2c1 [Compound 13, 2-[2-(2-methoxyethoxy)ethoxy]ethyl {3-[(6-{[2-(methylcarbamoyl)phenyl]thio}-1H-indazol-3-yl)ethynyl]phenyl}carbamate] |  | 9.3
CNC(=O)c1ccccc1Sc1ccc2c(C#Cc3ccc(NC(=O)OCCOCCOCCOC)cc3)n[nH]c2c1 [Compound 16, 2-[2-(2-methoxyethoxy)ethoxy]ethyl {4-[(6-{[2-(methylcarbamoyl)phenyl]thio}-1H-indazol-3-yl)ethynyl]phenyl}carbamate] | 0.27 (≈ 0.459 µM) | 1.2
CNC(=O)c1ccccc1Sc1ccc2c(C#Cc3ccc(NCCOCCOCCOCCOC)cc3)n[nH]c2c1 [Compound 28, 2-{[3-({4-[(2,5,8,11-tetraoxatridecane-13-yl)amino]phenyl}ethynyl)-1H-indazol-6-yl]thio}-N-methylbenzamide] | 0.17 (≈ 0.289 µM) | 
CNC(=O)c1ccccc1Sc1ccc2c(C#Cc3ccc(NC(=O)NCCOCCOCCN)cc3)n[nH]c2c1 [Compound 43, 2-[(3-{[4-(3-{2-[2-(2-aminoethoxy)ethoxy]ethyl}ureido)phenyl]ethynyl}-1H-indazol-6-yl)thio]-N-methylbenzamide] | 32 (≈ 55.9 µM) | 4
CNC(=O)c1ccccc1Sc1ccc2c(C#Cc3ccc(NC(=O)NCCOCCOCCOCCOCCOC)cn3)n[nH]c2c1 [Compound 37, 2-{[3-({5-[3-(2,5,8,11,14-pentaoxahexadecane-16-yl)ureido]pyridine-2-yl}ethynyl)-1H-indazol-6-yl]thio}-N-methylbenzamide] | 29 (≈ 42.8 µM) | 
CNC(=O)c1ccccc1Sc1ccc2c(C#Cc3ccc(NC(=O)COCCOCCOCCOC)cc3)n[nH]c2c1 [Compound 20, N-{4-[(6-{[2-(methylcarbamoyl)phenyl]thio}-1H-indazol-3-yl)ethynyl]phenyl}-2,5,8,11-tetraoxatridecane-13-amide] |  | 1.7
CNC(=O)c1ccccc1Sc1ccc2c(C#Cc3cncc(NC(=O)NCCOCCOCCOC)c3)n[nH]c2c1 [Compound 30, 2-[(3-{[5-(3-{2-[2-(2-methoxyethoxy)ethoxy]ethyl}ureido)pyridine-3-yl]ethynyl}-1H-indazol-6-yl)thio]-N-methylbenzamide] | 0.58 (≈ 0.985 µM) | 
CNC(=O)c1ccccc1Sc1ccc2c(C#Cc3ccc(NC(=O)NCCOCCOCCN(C)C)cc3)n[nH]c2c1 [Compound 44, 2-{[3-({4-[3-(2-{2-[2-(dimethylamino)ethoxy]ethoxy}ethyl)ureido]phenyl}ethynyl)-1H-indazol-6-yl]thio}-N-methylbenzamide] | 7.6 (≈ 12.7 µM) | 3
CNC(=O)c1ccccc1Sc1ccc2c(C#Cc3ccc(NC(=O)NCCOCCOCCN4CCOCC4)cc3)n[nH]c2c1 [Compound 46, N-methyl-2-[(3-{[4-(3-{2-[2-(2-morpholinoethoxy)ethoxy]ethyl}ureido)phenyl]ethynyl}-1H-indazol-6-yl)thio]benzamide] | 1.4 (≈ 2.18 µM) | 3.2
CNC(=O)c1ccccc1Sc1ccc2c(C#Cc3ccc(NCCOCCOCCOCCOCCOC)cc3)n[nH]c2c1 [Compound 29, 2-{[3-({4-[(2,5,8,11,14-pentaoxahexadecane-16-yl)amino]phenyl}ethynyl)-1H-indazol-6-yl]thio}-N-methylbenzamide] | 0.89 (≈ 1.41 µM) | 
CNC(=O)c1ccccc1Sc1ccc2c(C#Cc3ccc(NC(=O)NCCOCCOCCO)cc3)n[nH]c2c1 [Compound 42, 2-[(3-{[4-(3-{2-[2-(2-hydroxyethoxy)ethoxy]ethyl}ureido)phenyl]ethynyl}-1H-indazol-6-yl)thio]-N-methylbenzamide] | 3.1 (≈ 5.4 µM) | 1.6
CNC(=O)c1ccccc1Sc1ccc2c(C#Cc3cncc(NC(=O)NCCOCCOCCOCCOCCOC)c3)n[nH]c2c1 [Compound 31, 2-{[3-({5-[3-(2,5,8,11,14-pentaoxahexadecane-16-yl)ureido]pyridine-3-yl}ethynyl)-1H-indazol-6-yl]thio}-N-methylbenzamide] | 9.9 (≈ 14.6 µM) | 
CNC(=O)c1ccccc1Sc1ccc2c(C#Cc3ccc(NC(=O)OCCOCCOCCOCCOC)cc3)n[nH]c2c1 [Compound 17, 2,5,8,11-tetraoxatridecane-13-yl {4-[(6-{[2-(methylcarbamoyl)phenyl]thio}-1H-indazol-3-yl)ethynyl]phenyl}carbamate] | 0.38 (≈ 0.601 µM) | 
CNC(=O)c1ccccc1Sc1ccc2c(C#Cc3cccc(NC(=O)NCCOCCOCCOC)c3)n[nH]c2c1 [Compound 3, 2-[(3-{[3-(3-{2-[2-(2-methoxyethoxy)ethoxy]ethyl}ureido)phenyl]ethynyl}-1H-indazol-6-yl)thio]-N-methylbenzamide] |  | 11
CNC(=O)c1ccccc1Sc1ccc2c(C#Cc3cccc(NC(=O)NCCOCCOCCOCCOC)c3)n[nH]c2c1 [Compound 4] | 0.31 (≈ 0.491 µM) | 
CNC(=O)c1ccccc1Sc1ccc2c(C#Cc3ccc(NC(=O)NCCOCCOCCOC)nc3)n[nH]c2c1 [Compound 32, 2-[(3-{[6-(3-{2-[2-(2-methoxyethoxy)ethoxy]ethyl}ureido)pyridine-3-yl]ethynyl}-1H-indazol-6-yl)thio]-N-methylbenzamide] |  | 3.8
CNC(=O)c1ccccc1Sc1ccc2c(C#Cc3cccc(NCCOCCOCCOC)c3)n[nH]c2c1 [Compound 25, 2-[(3-{[3-({2-[2-(2-methoxyethoxy)ethoxy]ethyl}amino)phenyl]ethynyl}-1H-indazol-6-yl)thio]-N-methylbenzamide] |  | 10
CNC(=O)c1ccccc1Sc1ccc2c(C#Cc3ccc(NC(=O)NCCOCCOCCOCCOC)cc3)n[nH]c2c1 [Compound 9, 2-{[3-({4-[3-(2,5,8,11-tetraoxatridecane-13-yl)ureido]phenyl}ethynyl)-1H-indazol-6-yl]thio}-N-methylbenzamide] | 1.2 (≈ 1.9 µM) | 
CNC(=O)c1ccccc1Sc1ccc2c(C#Cc3ccc(NC(=O)NCCOCCOCCOC)cn3)n[nH]c2c1 [Compound 35, 2-[(3-{[5-(3-{2-[2-(2-methoxyethoxy)ethoxy]ethyl}ureido)pyridine-2-yl]ethynyl}-1H-indazol-6-yl)thio]-N-methylbenzamide] | 4.4 (≈ 7.47 µM) | 3.2
